Reference: patent US20090118286A1, “Heterobicyclic Acrylamides” (Bayer Cropscience AG, priority 2005, published 2009)

Assay: log P determination by HPLC (EEC Directive 79/831 Annex V.A8, gradient method)
Assay type: physicochemical

| Structure (SMILES) | Physical data: logP | Physical data (logP) | further results |
| --- | --- | --- | --- |
| Cc1csc2nc(-c3ccccc3Cl)c(/C=C/C(=O)NCC(C)(C)C)n12 [Example 0885] | 2.67 | – | – |
| CCCC(C)NC(=O)/C=C/c1c(-c2cccc(C(F)(F)F)c2)nc2sc(C(F)(F)F)nn12 (centres unmarked) [Example 0381] | – | – | Physical data: log P: 4.56 |
| CCC(C)NC(=O)/C=C/c1c(-c2ccccc2Cl)nc2sc(COC)nn12 (centres unmarked) [Example 0825] | 2.71 | – | – |
| O=C(O)/C=C/c1c(-c2ccccc2Cl)nc2sc(C(F)F)nn12 [VA-14] | – | 2.41 | – |
| CC(NC(=O)/C=C/c1c(-c2ccc(F)cc2)nc2sc(C(F)(F)F)nn12)c1ccccn1 (centres unmarked) [Example 0345] | – | – | Physical data: log P: 2.45 |
| Cc1cn2c(/C=C/C(=O)NC(C)C)c(-c3ccccc3Cl)nc2s1 [Example 0868] | 2.35 | – | – |
| CCNC(=O)/C=C/c1c(-c2ccccc2Cl)nc2sc(C(F)(F)F)nn12 [Example 0147] | – | 2.82 | – |
| Cc1cn2c(/C=C/C(=O)Nc3ccc(Cl)cc3)c(-c3ccccc3Cl)nc2s1 [Example 0877] | 3.57 | – | – |
| O=C(/C=C/c1c(-c2ccc(Cl)cc2Cl)nc2sc(C(F)(F)F)nn12)N1CCCCC1 [Example 0574] | – | – | Physical data: log P: 4.31 |
| CC(NC(=O)/C=C/c1c(-c2sccc2Cl)nc2sc(C(F)(F)F)nn12)C(F)(F)F (racemic) [Example 0922] | 3.65 | – | – |
| CC(ONC(=O)/C=C/c1c(-c2cccc(Cl)c2)nc2sc(C(F)(F)F)nn12)c1ccccc1 (centres unmarked) [Example 0132] | – | 4.23 | – |
| CC(C)C(NC(=O)C=Cc1c(-c2ccc(Cl)nc2)nc2sc(C(F)(F)F)nn12)C(F)(F)F (centres unmarked) [Example 0936] | 3.89 | – | – |
| O=C(/C=C/c1c(-c2ccc(F)cc2)nc2sc(C(F)(F)F)nn12)NC1CC1 [Example 0304] | – | – | Physical data: log P: 2.95 |
| O=C(O)/C=C/c1c(-c2cncc(Br)c2)nc2sc(C(F)(F)F)nn12 [VA117] | – | 2.54 | – |
| CC(C)CNC(=O)/C=C/c1c(-c2ccccc2Cl)nc2sc(-c3ccc(C(F)(F)F)cc3)nn12 [Example 0838] | 4.37 | – | – |
| CC(C)C(NC(=O)/C=C/c1c(-c2ccccc2Cl)nc2sc(C(C)(C)C)nn12)C(F)(F)F (centres unmarked) [Example 0796] | 4.46 | – | – |
| CCC(NC(=O)C=Cc1c(-c2ccc(F)cc2)nc2sc(C(F)(F)F)nn12)C1CCCCC1 (centres unmarked) [Example 0338] | – | – | Physical data: log P: 4.92 |
| CC(C)NC(=O)/C=C/c1c(-c2ccccc2Cl)nc2sc(C(F)(F)C(F)(F)F)nn12 [Example 0959] | 3.66 | – | – |
| O=C(/C=C/c1c(-c2ccccc2Cl)nc2sc(C(F)(F)F)nn12)NOCC1CC1 [Example 0211] | – | 3.18 | – |
| COc1ccc(-c2nc3sc(C(F)(F)F)nn3c2/C=C/C(=O)NC2CCC2)cc1OC [Example 0657] | 3.03 | – | – |
| CC(NC(=O)/C=C/c1c(-c2nccs2)nc2sc(C(F)(F)C(F)(F)F)nn12)C(F)(F)F (racemic) [Example 0987] | 3.81 | – | – |
| O=C(O)/C=C/c1c(-c2ccc(F)cc2Cl)nc2sc(C(F)(F)C(F)F)nn12 [VA134] | – | 3.01 | – |
| Cc1cn2c(/C=C/C(=O)NCC(F)(F)C(F)(F)C(F)(F)F)c(-c3ccccc3Cl)nc2s1 [Example 0881] | 3.51 | – | – |
| CC(NC(=O)/C=C/c1c(-c2ccccc2Cl)nc2sc(C(F)(F)F)nn12)C(F)(F)F (single isomer, unassigned) [Example 0185] | – | 3.77 | – |
| CC(ONC(=O)/C=C/c1c(-c2ccc(Cl)cc2Cl)nc2sc(C(F)(F)F)nn12)c1ccccc1 (centres unmarked) [Example 0565] | – | – | Physical data: log P: 4.23 |
| CCC(NC(=O)C=Cc1c(-c2ccccc2Cl)nc2sc(C(F)(F)F)nn12)c1ccccc1 (centres unmarked) [Example 0190] | – | 4.08 | – |
| Cc1csc2nc(-c3ccccc3Cl)c(/C=C/C(=O)NC(C(C)C)C(F)(F)F)n12 (centres unmarked) [Example 0884] | 3.11 | – | – |
| O=C(O)/C=C/c1c(-c2nccs2)nc2sc(C(F)(F)C(F)(F)F)nn12 [VA116] | – | 2.97 | – |
| Cc1cn2c(/C=C/C(=O)Nc3ccc(C(F)(F)F)cc3)c(-c3ccccc3Cl)nc2s1 [Example 0879] | 3.88 | – | – |
